The numbers were not newly measured in patent publication US20220177978A1, “METHODS OF PREDICTING AND PREVENTING CANCER IN PATIENTS HAVING PREMALIGNANT LESIONS” (INSERM (Institut National de la Santé et de la Recherche …, priority 2019, published 2022), which cites them from elsewhere.

As a reminder, the IC50 is the concentration that gives 50% inhibition.

For data set [1], the system named is other JAK-family kinases.
Data set [2] concerns the target JAK2 (Homo sapiens, UniProt O60674).

Sequence of JAK2 (O60674 whole entry, species assumed): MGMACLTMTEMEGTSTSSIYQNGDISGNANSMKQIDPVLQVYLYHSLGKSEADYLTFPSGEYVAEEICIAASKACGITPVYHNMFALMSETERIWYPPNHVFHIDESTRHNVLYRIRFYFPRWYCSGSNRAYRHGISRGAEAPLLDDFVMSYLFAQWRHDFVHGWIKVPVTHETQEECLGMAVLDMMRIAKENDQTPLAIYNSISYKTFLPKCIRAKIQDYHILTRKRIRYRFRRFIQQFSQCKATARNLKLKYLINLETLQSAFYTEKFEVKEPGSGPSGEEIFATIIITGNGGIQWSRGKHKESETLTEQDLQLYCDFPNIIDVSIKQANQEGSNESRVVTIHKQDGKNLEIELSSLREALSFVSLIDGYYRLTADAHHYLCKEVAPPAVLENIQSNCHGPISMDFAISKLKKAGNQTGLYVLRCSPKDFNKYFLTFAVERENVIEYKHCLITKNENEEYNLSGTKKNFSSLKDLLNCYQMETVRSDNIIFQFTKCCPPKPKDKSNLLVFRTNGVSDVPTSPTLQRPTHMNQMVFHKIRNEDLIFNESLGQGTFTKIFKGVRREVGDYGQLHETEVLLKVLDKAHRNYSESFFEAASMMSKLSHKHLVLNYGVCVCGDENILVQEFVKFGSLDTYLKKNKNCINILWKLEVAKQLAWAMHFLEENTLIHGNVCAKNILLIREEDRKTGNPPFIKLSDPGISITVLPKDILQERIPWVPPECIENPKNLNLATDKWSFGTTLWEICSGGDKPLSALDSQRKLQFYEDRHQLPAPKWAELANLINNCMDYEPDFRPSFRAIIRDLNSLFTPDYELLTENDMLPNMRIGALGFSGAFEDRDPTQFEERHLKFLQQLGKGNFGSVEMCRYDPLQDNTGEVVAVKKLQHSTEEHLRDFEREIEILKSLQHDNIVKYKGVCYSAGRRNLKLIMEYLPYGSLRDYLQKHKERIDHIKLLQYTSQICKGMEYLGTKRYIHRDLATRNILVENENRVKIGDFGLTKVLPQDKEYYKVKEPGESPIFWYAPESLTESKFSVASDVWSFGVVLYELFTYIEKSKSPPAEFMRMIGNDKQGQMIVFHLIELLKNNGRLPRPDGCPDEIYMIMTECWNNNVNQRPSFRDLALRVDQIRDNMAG

With `C[C@H](Nc1cc(-c2cnn(C)c2)cc(Nc2cnccn2)n1)c1ccc(F)cc1` [NS018], the “selectivity for JAK2 over other JAK-family kinases” value in data set [1] is 30-50 fold. The 50% inhibitory concentration (IC50) in data set [2] is below 1 nM.
